Experimental data as given in patent publication US4593090A, “Novel nitrosourea compounds, method for preparing same, and pharmaceutical composition containing same” (Gogo Kimura, priority 1981, dated 1986).
Read-outs that look alike come from different tables or passages of the source.

Tests used:
[1] = system: Leukemia L1210; assay: Activity against Leukemia L1210, intraperitoneal, increase in life span of mice; assay type: in vivo, female mice (BDF1 family); details: for ED (maximum ILS) / ED30: Mus musculus, L1210, ip, ip once a day for 5 successive days; for ED (maximum ILS): daily dosage giving maximum increase of life span, read-out: O.D. (optimum dosage); for ED30: daily dosage increasing average survival days by 30%, read-out: ILS30; for Survivors after 60 days / Max. ILS % / Therapeutic ratio TR: ip; for Survivors after 60 days: 6-membered group; for Max. ILS %: 60-day observation, versus control; for Therapeutic ratio TR: O.D./ILS30
Procedure, shortened: (§1)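 Dosing started 24 h after ip implantation of 1×10^5 L1210 cells into groups of 6 female BDF1 mice, by ip or oral route daily for 5 consecutive days. Survival was followed for 60 days; increase in life span was scored against untreated mice, with therapeutic ratio from optimum dose over ILS30 dose.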

[2] = Acute toxicity (LD50, Behrens-Karber method); assay type: in vivo, ICR mice; details: mouse, in vivo, ip, mortality during 30 days
Procedure: Test compounds, dissolved or suspended in 0.5% aqueous CMC, were each intraperitoneally administered to ICR mice in a dose of 0.1 ml per 10 g body weight. LD50 (mg/kg) value of each test compound was calculated from the mortality of mice during 30 days by the Behrens-Karber method.

[3] = Diuretic activity, acute sodium loaded mouse screening test; assay type: in vivo, male mice; details: 50 mg/kg oral in 1% saline; for Cl^- / K^+ / Na^+: urine
Procedure: The diuretic activity of the compounds of this invention was assayed by the diuresis screening test referred to as "acute sodium loaded mouse". This test was carried out by the following method.
The acute sodium loaded mouse screening test was carried out by using a 10-membered group of male mice (each weighing 18 to 24 g). Test compounds were incorporated in 1% saline (NaCl) solution and orally administered in a volume of 10 ml/kg. The mice were placed in metabolic cages. Each treated group consisted of 10-members. Five members were placed in one cage. Tests were conducted by oral administrations of (A) 1% saline (NaCl) solution to the control group and (B) 1% saline (NaCl) solution containing a test compound according to this invention.
The determination was carried out for sodium, potassium, and chlorine in each pooled urine sample. The determination of sodium and potassium was carried out by flame photometer. Chlorine was determined by chloride analysis apparatus. The analytical values of sodium, potassium, and chlorine were shown with an average mg equivalent (m Eq)/Kg/5 hours, and the diuretic activity was shown with an average urine volume (ml)/Kg/5 hours.

[4] = system: Ehrlich acites carcinoma; assay: Growth-inhibiting effect against Ehrlich acites carcinoma; assay type: in vivo, male mice; details: 5 days; for response vs control in vivo at 50 mg/kg / response vs control in vivo at 200 mg/kg / response vs control in vivo at 25 mg/kg / response vs control in vivo at 100 mg/kg / response vs control in vivo at 3.2 mg/kg / response vs control in vivo at 12.5 mg/kg: Mus musculus, Ehrlich, 120 h; for response vs control in vivo at 50 mg/kg: 50 mg/kg/day ip; for response vs control in vivo at 200 mg/kg: 200 mg/kg/day ip; for response vs control in vivo at 25 mg/kg: 25 mg/kg/day ip; for response vs control in vivo at 100 mg/kg: 100 mg/kg/day ip; for response vs control in vivo at 3.2 mg/kg: 3.2 mg/kg/day ip; for response vs control in vivo at 12.5 mg/kg: 12.5 mg/kg/day ip
Procedure, shortened: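 Activity graded from T/C% of total packed ascites cell volume on day 7 (treated vs untreated): - 100-66, + 65-41, ++ 40-11, +++ 10-0. Groups of 6 male mice bore 1×10^7 i.p.-implanted cells and received compound (1% Nikkol HCO-60) i.p. daily for 5 days from 24 hrs after implantation.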

[5] = system: Leukemia L1210; assay: Activity against Leukemia L1210, oral, increase in life span of mice; assay type: in vivo, female mice (BDF1 family); details: for ED (maximum ILS) / ED30: Mus musculus, L1210, oral once a day for 5 successive days; for ED (maximum ILS): daily dosage giving maximum increase of life span, read-out: O.D. (optimum dosage); for ED30: daily dosage increasing average survival days by 30%, read-out: ILS30; for Survivors after 60 days / Max. ILS % / Therapeutic ratio TR: oral; for Survivors after 60 days: 6-membered group; for Max. ILS %: 60-day observation, versus control; for Therapeutic ratio TR: O.D./ILS30
Procedure, shortened: as §1

Compound | ED (maximum ILS) [1] [mg/kg] | ED30 [1] [mg/kg] | Survivors after 60 days [1] | Max. ILS % [1] [%] | Therapeutic ratio TR [1] | LD50 at 720 h [2] [mg/kg] | Urine volume [3] [ml/kg/5 hrs.] | Cl^- [3] [mEq/kg/5 hrs.] | K^+ [3] [mEq/kg/5 hrs.] | Na^+ [3] [mEq/kg/5 hrs.] | response vs control in vivo at 25 mg/kg ([4]; read-out: Activity) [%] | response vs control in vivo at 25 mg/kg ([4]; read-out: T/C %) [%] | response vs control in vivo at 100 mg/kg ([4]; read-out: Activity) [%] | response vs control in vivo at 100 mg/kg ([4]; read-out: T/C %) [%] | ED (maximum ILS) [5] [mg/kg] | ED30 [5] [mg/kg] | Survivors after 60 days [5] | Max. ILS % [5] [%] | Therapeutic ratio TR [5] | also measured
CCCCO[C@@H]1O[C@H](CN(C)C(=O)N(CCCl)N=O)[C@@H](O)[C@H](O)[C@H]1O [Compound 4, 3-methyl-3-(n-butyl β-D-glucopyranose-6-yl)-1-(2-chloroethyl)-1-nitrosourea] | 80 | 2.7 | 6/6 | > 700 | 29.6 | 220 | 8.6 | 0.6 | 0.9 | 0.5 | – | – | – | – | – | – | – | – | – | response vs control in vivo at 50 mg/kg ([4]; read-out: Activity): 11 to 40%; response vs control in vivo at 50 mg/kg ([4]; read-out: T/C %): 30.2%; response vs control in vivo at 200 mg/kg ([4]; read-out: Activity): 0 to 10%; response vs control in vivo at 200 mg/kg ([4]; read-out: T/C %): 2.3%
CCCCO[C@H]1O[C@H](CN(CCCOC)C(=O)N(CCCl)N=O)[C@@H](O)[C@H](O)[C@H]1O [Compound 10] | 150 | 3.1 | 6/6 | > 700 | 48.4 | 480 | 8.7 | 0.6 | 0.8 | 0.5 | 0 to 10 | 0 | 0 to 10 | 0 | – | – | – | – | – | –
COCCN(C[C@H]1O[C@H](OCC(C)C)[C@H](O)[C@@H](O)[C@@H]1O)C(=O)N(CCCl)N=O [Compound 15, 3-(2-methoxyethyl)-3-(isobutyl α-D-glucopyranose-6-yl)-1-(2-chloroethyl)-1-nitrosourea] | 180 | 2.9 | 6/6 | > 700 | 62.1 | 570 | 9.2 | 0.7 | 0.9 | 0.6 | 0 to 10 | 0 | 0 to 10 | 0 | – | – | – | – | – | –
COCCCN(C[C@H]1O[C@H](OCC(C)C)[C@H](O)[C@H]1O)C(=O)N(CCCl)N=O [Compound 164, 3-(3-methoxy-n-propyl)-3-(isobutyl α-D-xylofuranose-5-yl)-1-(2-chloroethyl)-1-nitrosourea] | 160 | 2.72 | 6/6 | > 700 | 58.8 | 520 | – | – | – | – | 0 to 10 | 0 | 0 to 10 | 0 | 185 | 14.5 | 5/6 | > 620 | 12.8 | –
CC(C)CN(C[C@H]1O[C@@H](OCC2CCCO2)[C@H](O)[C@@H]1O)C(=O)N(CCCl)N=O (stereo partly drawn) [Compound 170, 3-isobutyl-3-(tetrahydrofurfuryl β-D-ribofuranose-5-yl)-1-(2-chloroethyl)-1-nitrosourea] | 160 | 3 | 5/6 | > 620 | 53.3 | 505 | – | – | – | – | 0 to 10 | 0 | 0 to 10 | 0 | 190 | 13.4 | 4/6 | > 440 | 14.2 | –
CC(C)CO[C@@H]1O[C@H](CN(C(=O)N(CCCl)N=O)C(C)(C)C)[C@@H](O)[C@H](O)[C@H]1O [Compound 175, 3-tert-butyl-3-(isobutyl β-D-glucopyranose-6-yl)-1-(2-chloroethyl)-1-nitrosourea] | 170 | 3.33 | 6/6 | > 700 | 51.0 | 550 | 9.4 | 0.8 | 0.9 | 0.6 | – | – | – | – | – | – | – | – | – | –
CC(CN1CCOCC1)O[C@@H]1O[C@H](CN(C(=O)N(CCCl)N=O)C(C)(C)C)[C@@H](O)[C@H](O)[C@H]1O (stereo partly drawn) [Compound 200, 3-tert-butyl-3-(1-morpholinoisopropyl β-D-glucopyranose-6-yl)-1-(2-chloroethyl)-1-nitrosourea] | 150 | 3.11 | 6/6 | > 700 | 48.2 | 480 | – | – | – | – | 0 to 10 | 0 | 0 to 10 | 0 | 190 | 10.1 | 4/6 | > 460 | 18.9 | –
O=NN(CCCl)C(=O)N[C@@H]1O[C@H](CO)[C@@H](O)[C@H](O)[C@H]1O [GANU, 3-(β-D-glucopyranosyl)-1-(2-chloroethyl)-1-nitrosourea, reference compound] | 6.2 | 0.45 | 4/6 | > 425 | 13.8 | 35 | – | – | – | – | – | – | – | – | 6.35 | 2.5 | 0/6 | 94 | 2.54 | Activity (toxicity in words) ([4]; 25.0 mg/kg/day ip): Toxic (6/6); response vs control in vivo at 3.2 mg/kg ([4]; read-out: Activity): 0 to 10%; response vs control in vivo at 3.2 mg/kg ([4]; read-out: T/C %): 0%; response vs control in vivo at 12.5 mg/kg ([4]; read-out: Activity): 0 to 10%; response vs control in vivo at 12.5 mg/kg ([4]; read-out: T/C %): 0%
